The supplement of paper PMC6045584
± gives the standard deviation of the averaged measurements.

Legend:
MDV3100 = compound: CNC(=O)c1ccc(N2C(=S)N(c3ccc(C#N)c(C(F)(F)F)c3)C(=O)C2(C)C)cc1F [MDV3100]; assay: surviving fraction relative to DMSO-only wells; higher = less growth inhibition; settings: exposure time: 5 days
Summary of the method: (§1)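 Continuous five-day exposure to inhibitors at 0.5, 1, 5, 10, 50, 100, 500 and 1000 nM started 24 hours after log-phase tumour cell lines were seeded at 250–500 cells per well in 384-well plates. Luminescence was read after 10 minutes at room temperature. Viability is given as surviving fraction, meaning CellTiter-Glo luminescence normalised to the median of DMSO-only wells.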

SAPACITABINE [1] = compound: T1, CCCCCCCCCCCCCCCC(=O)Nc1ccn([C@@H]2O[C@H](CO)[C@@H](O)[C@@H]2C#N)c(=O)n1 [SAPACITABINE]; assay: as above; settings: exposure time: 5 days
Summary of the method: as §1

BI-2536 [2] = compound: T2, CC[C@@H]1C(=O)N(C)c2cnc(Nc3ccc(C(=O)NC4CCN(C)CC4)cc3OC)nc2N1C1CCCC1 [BI-2536]; assay: as above; settings: exposure time: 5 days
Summary of the method: as §1

AFATINIB [3] = compound: T3, CN(C)C/C=C/C(=O)Nc1cc2c(Nc3ccc(F)c(Cl)c3)ncnc2cc1O[C@H]1CCOC1 [AFATINIB]; assay: as above; settings: exposure time: 5 days
Summary of the method: as §1

SNX-5422 [4] = compound: T4, CC1(C)CC(=O)c2c(C(F)(F)F)nn(-c3ccc(C(N)=O)c(N[C@H]4CC[C@H](OC(=O)CN)CC4)c3)c2C1 [SNX-5422]; assay: as above; settings: exposure time: 5 days
Summary of the method: as §1

[5] = compound: Cn1cc(C2=Nc3cc(NC(=O)C(N)C4CCCCC4)cc4c3C2=CNNC4=O)cn1; assay: as above; settings: exposure time: 5 days
Summary of the method: as §1

CANERTINIB [6] = compound: T5, C=CC(=O)Nc1cc2c(Nc3ccc(F)c(Cl)c3)ncnc2cc1OCCCN1CCOCC1 [CANERTINIB]; assay: as above; settings: exposure time: 5 days
Summary of the method: as §1

TIOGUANINE [7] = compound: T6, Nc1nc2[nH]cnc2c(=S)[nH]1 [TIOGUANINE]; assay: as above; settings: exposure time: 5 days
Summary of the method: as §1

SAPACITABINE [8] = compound: T1, SAPACITABINE; assay: area under dose-response curve of surviving fraction (unscaled, Aref=0) (surviving fraction x log10(nM)); higher = more resistant; settings: exposure time: 5 days; dose range 0.5-1000 nM
Summary of the method: (§2)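 Inhibitor was applied to tumour cell lines at eight concentrations (0.5 to 1000 nM) for five days in 384-well plates. Luminescence from CellTiter-Glo, scaled to DMSO-only wells, gave surviving fractions in three screens per line, and these were fitted by 3-parameter logistic regression with the drc R package. The area under the curve is an unscaled activity area. Aref was 0, and dose was on a log10 scale.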

BI-2536 [9] = compound: T2, BI-2536; assay: as above; settings: exposure time: 5 days; dose range 0.5-1000 nM
Summary of the method: as §2

AFATINIB [10] = compound: T3, AFATINIB; assay: as above; settings: exposure time: 5 days; dose range 0.5-1000 nM
Summary of the method: as §2

SNX-5422 [11] = compound: T4, SNX-5422; assay: as above; settings: exposure time: 5 days; dose range 0.5-1000 nM
Summary of the method: as §2

[12] = compound: Cn1cc(C2=Nc3cc(NC(=O)C(N)C4CCCCC4)cc4c3C2=CNNC4=O)cn1; assay: as above; settings: exposure time: 5 days; dose range 0.5-1000 nM
Summary of the method: as §2

CANERTINIB [13] = compound: T5, CANERTINIB; assay: as above; settings: exposure time: 5 days; dose range 0.5-1000 nM
Summary of the method: as §2

TIOGUANINE [14] = compound: T6, TIOGUANINE; assay: as above; settings: exposure time: 5 days; dose range 0.5-1000 nM
Summary of the method: as §2

With VCAP PROSTATE the surviving fraction (MDV3100; 0.5 nM) was 1.04 ± 0.12, the surviving fraction (MDV3100; 1 nM) was 1.06 ± 0.23 and the surviving fraction (MDV3100; 5 nM) was 1.09 ± 0.12. For the same test system, the surviving fraction (MDV3100; 10 nM) was 1.11 ± 0.14, the surviving fraction (MDV3100; 50 nM) was 1.13 ± 0.058 and the surviving fraction (MDV3100; 100 nM) was 1.09 ± 0.15. For the same test system, the surviving fraction (MDV3100; 500 nM) was 0.837 ± 0.07, the surviving fraction (MDV3100; 1000 nM) was 0.722 ± 0.1 and the surviving fraction (SAPACITABINE [1]; 0.5 nM) was 0.892 ± 0.048. It also gave a surviving fraction (SAPACITABINE [1]; 1 nM) of 0.935 ± 0.07, a surviving fraction (SAPACITABINE [1]; 5 nM) of 0.959 ± 0.085 and a surviving fraction (SAPACITABINE [1]; 10 nM) of 0.91 ± 0.055. The surviving fraction (SAPACITABINE [1]; 50 nM) was 1.06 ± 0.038, the surviving fraction (SAPACITABINE [1]; 100 nM) was 1.03 ± 0.1 and the surviving fraction (SAPACITABINE [1]; 500 nM) was 0.95 ± 0.015. The surviving fraction (SAPACITABINE [1]; 1000 nM) was 0.791 ± 0.1, the surviving fraction (BI-2536 [2]; 0.5 nM) was 0.925 ± 0.13 and the surviving fraction (BI-2536 [2]; 1 nM) was 0.243 ± 0.0099. The surviving fraction (BI-2536 [2]; 5 nM) was 0.0727 ± 0.012, the surviving fraction (BI-2536 [2]; 10 nM) was 0.0763 ± 0.015 and the surviving fraction (BI-2536 [2]; 50 nM) was 0.154 ± 0.031. It also gave a surviving fraction (BI-2536 [2]; 100 nM) of 0.228 ± 0.031, a surviving fraction (BI-2536 [2]; 500 nM) of 0.07 ± 0.0027 and a surviving fraction (BI-2536 [2]; 1000 nM) of 0.0443 ± 0.013. For the same test system, the surviving fraction (AFATINIB [3]; 0.5 nM) was 1.07 ± 0.14, the surviving fraction (AFATINIB [3]; 1 nM) was 1 ± 0.16 and the surviving fraction (AFATINIB [3]; 5 nM) was 1.06 ± 0.093. For the same test system, the surviving fraction (AFATINIB [3]; 10 nM) was 1.06 ± 0.051, the surviving fraction (AFATINIB [3]; 50 nM) was 1.06 ± 0.064 and the surviving fraction (AFATINIB [3]; 100 nM) was 1.03 ± 0.14. The surviving fraction (AFATINIB [3]; 500 nM) was 0.723 ± 0.14, the surviving fraction (AFATINIB [3]; 1000 nM) was 0.405 ± 0.043 and the surviving fraction (SNX-5422 [4]; 0.5 nM) was 1.13 ± 0.051. It also gave a surviving fraction (SNX-5422 [4]; 1 nM) of 1.03 ± 0.057, a surviving fraction (SNX-5422 [4]; 5 nM) of 1.08 ± 0.081 and a surviving fraction (SNX-5422 [4]; 10 nM) of 1.15 ± 0.086. For the same test system, the surviving fraction (SNX-5422 [4]; 50 nM) was 0.279 ± 0.024, the surviving fraction (SNX-5422 [4]; 100 nM) was 0.141 ± 0.0038 and the surviving fraction (SNX-5422 [4]; 500 nM) was 0.165 ± 0.0055. It also gave a surviving fraction (SNX-5422 [4]; 1000 nM) of 0.161 ± 0.013, a surviving fraction ([5]; 0.5 nM) of 1.04 ± 0.058 and a surviving fraction ([5]; 1 nM) of 1.13 ± 0.12. For the same test system, the surviving fraction ([5]; 5 nM) was 1.14 ± 0.033, the surviving fraction ([5]; 10 nM) was 1.16 ± 0.081 and the surviving fraction ([5]; 50 nM) was 0.969 ± 0.051. The surviving fraction ([5]; 100 nM) was 0.97 ± 0.032, the surviving fraction ([5]; 500 nM) was 0.254 ± 0.059 and the surviving fraction ([5]; 1000 nM) was 0.113 ± 0.0095. It also gave a surviving fraction (CANERTINIB [6]; 0.5 nM) of 0.902 ± 0.036, a surviving fraction (CANERTINIB [6]; 1 nM) of 0.904 ± 0.026 and a surviving fraction (CANERTINIB [6]; 5 nM) of 0.954 ± 0.046. The surviving fraction (CANERTINIB [6]; 10 nM) was 0.935 ± 0.12, the surviving fraction (CANERTINIB [6]; 50 nM) was 1.19 ± 0.083 and the surviving fraction (CANERTINIB [6]; 100 nM) was 1.17 ± 0.1. The surviving fraction (CANERTINIB [6]; 500 nM) was 0.859 ± 0.09, the surviving fraction (CANERTINIB [6]; 1000 nM) was 0.737 ± 0.037 and the surviving fraction (TIOGUANINE [7]; 0.5 nM) was 1.04 ± 0.18. The surviving fraction (TIOGUANINE [7]; 1 nM) was 0.99 ± 0.11, the surviving fraction (TIOGUANINE [7]; 5 nM) was 1.11 ± 0.13 and the surviving fraction (TIOGUANINE [7]; 10 nM) was 1.11 ± 0.12. The surviving fraction (TIOGUANINE [7]; 50 nM) was 1.14 ± 0.094, the surviving fraction (TIOGUANINE [7]; 100 nM) was 1.08 ± 0.11 and the surviving fraction (TIOGUANINE [7]; 500 nM) was 0.973 ± 0.082. For the same test system, the surviving fraction (TIOGUANINE [7]; 1000 nM) was 1.02 ± 0.15, the “area under dose-response curve” value (SAPACITABINE [8]) was 3.11 and the “area under dose-response curve” value (BI-2536 [9]) was 0.516. The “area under dose-response curve” value (AFATINIB [10]) was 3.11, the “area under dose-response curve” value (SNX-5422 [11]) was 2.12 and the “area under dose-response curve” value [12] was 2.82. For the same test system, the “area under dose-response curve” value (CANERTINIB [13]) was 3.15 and the “area under dose-response curve” value (TIOGUANINE [14]) was 3.49.
